The source of these data is patent US9782406B2, “Kinase inhibitor and method for treatment of related diseases” (PEKING UNIVERSITY SHENZHEN GRADUATE SCHOOL, priority 2011, dated 2017).

Sequence of Btk (Q06187 whole entry): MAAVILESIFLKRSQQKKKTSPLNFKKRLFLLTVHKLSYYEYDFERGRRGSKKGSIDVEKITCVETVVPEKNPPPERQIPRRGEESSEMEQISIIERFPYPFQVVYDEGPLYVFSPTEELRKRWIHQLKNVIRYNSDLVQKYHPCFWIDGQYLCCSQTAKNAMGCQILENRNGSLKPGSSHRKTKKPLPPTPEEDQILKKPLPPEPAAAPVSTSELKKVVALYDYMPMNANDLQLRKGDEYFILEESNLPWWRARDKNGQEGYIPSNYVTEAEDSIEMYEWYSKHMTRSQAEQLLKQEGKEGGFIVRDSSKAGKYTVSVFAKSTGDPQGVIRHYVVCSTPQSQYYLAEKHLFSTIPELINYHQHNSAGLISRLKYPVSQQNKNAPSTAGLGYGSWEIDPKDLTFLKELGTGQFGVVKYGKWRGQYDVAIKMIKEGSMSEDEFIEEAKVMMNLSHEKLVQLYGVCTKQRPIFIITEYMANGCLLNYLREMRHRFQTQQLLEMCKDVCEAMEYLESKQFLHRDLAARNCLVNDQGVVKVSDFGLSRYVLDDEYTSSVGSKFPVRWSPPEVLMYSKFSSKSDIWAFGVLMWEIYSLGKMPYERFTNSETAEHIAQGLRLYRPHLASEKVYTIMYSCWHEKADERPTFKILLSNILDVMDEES

The first assay addresses Btk (Homo sapiens, UniProt Q06187). The experiment in a line: Btk in vitro inhibitory activity, acellular TR-FRET kinase assay. Also: 1 µM peptide substrate. It is filed as biochemical. As to conditions: read-out: Btk IC50 (Efficacy). As to the method: Btk kinase activity was determined using a time-resolved fluorescence resonance energy transfer (TR-FRET) methodology. Measurements were performed in a reaction volume of 50 μL using 96-well assay plates. […] The TR-FRET signal was measured on a multimode plate reader with an excitation wavelength (λEx) of 330 nm and detection wavelengths (λEm) of 615 and 665 nm. Activity was determined by the ratio of the fluorescence at 665 nm to that at 615 nm. For each compound, enzyme activity was measured at various concentrations of compound. Negative control reactions were performed in the absence of inhibitor in replicates of six, and two no-enzyme controls were used to determine baseline fluorescence levels. IC50s were obtained using the program Batch Ki (Kuzmic et al. (2000), Anal. Biochem. 286:45-50).
A general note: Time-resolved FRET reads energy transfer from a long-lived donor to a nearby acceptor.
One may read the IC50 as the midpoint of a concentration-inhibition curve. Regarding `C/C=C/C(=O)Nc1cccc(Nc2ncc(NC(=O)c3cc(NC(=O)c4cccc(C(F)(F)F)c4)ccc3C)cn2)c1` [Example 2], the IC50 is less than 0.1 µM. Still for that read-out and setting: the result for `C=CS(=O)(=O)Nc1cccc(Nc2ncc(NC(=O)c3cc(NC(=O)c4cccc(C(F)(F)F)c4)ccc3C)cn2)c1` [Example 3] reads less than 0.1 µM; that for `C=CC(=O)NCC(=O)Nc1cccc(Nc2ncc(NC(=O)c3cc(NC(=O)c4cccc(C(F)(F)F)c4)ccc3C)cn2)c1` [Example 4], less than 0.1 µM; that for `C=CC(=O)N(C(=O)C=C)c1cccc(Nc2ncc(NC(=O)c3cc(NC(=O)c4cccc(C(F)(F)F)c4)ccc3C)cn2)c1` [Example 5], 0.1 to 1 µM.

For the compound `C=CC(=O)Nc1cccc(Nc2ncc(NC(=O)c3cc(NC(=O)c4cccc(C(F)(F)F)c4)ccc3Cl)cn2)c1` [Example 6], the IC50 was less than 0.1 µM.

With `C=CC(=O)Nc1cccc(Nc2ncc(NC(=O)c3cc(NC(=O)c4cccc(C(F)(F)F)c4)ccc3F)cn2)c1` [Example 7], the IC50 was less than 0.1 µM.

In the case of `C=CC(=O)Nc1cccc(Nc2ncc(NC(=O)c3cccc(NC(=O)c4cccc(C(F)(F)F)c4)c3)cn2)c1` [Example 8], the IC50 was less than 0.1 µM. Still for that read-out and setting: the result for `C=CC(=O)Nc1cccc(Nc2ncc(NC(=O)c3ccccc3C)cn2)c1` [Example 9] reads less than 0.1 µM.

With `C=CC(=O)Nc1cccc(Nc2ncc(NC(=O)c3cc(NC(=O)CC)ccc3C)cn2)c1` [Example 10], the IC50 lay within 0.1 to 1 µM. The same measure, in the same setting: the result for `C=CC(=O)Nc1cccc(Nc2ncc(NC(=O)c3cc(NC(=O)c4ccc5ccccc5c4)ccc3C)cn2)c1` [Example 11] reads less than 0.1 µM; that for `C=CC(=O)Nc1cccc(Nc2ncc(NC(=O)c3cc(NC(=O)c4cc(OC)cc(OC)c4)ccc3C)cn2)c1` [Example 12], less than 0.1 µM; that for `C=CC(=O)Nc1cccc(Nc2ncc(NC(=O)c3cc(NC(=O)c4ccc5c(c4)OC(F)(F)O5)ccc3C)cn2)c1` [Example 13], less than 0.1 µM. Still for that read-out and setting: for `C=CC(=O)Nc1cccc(Nc2ncc(NC(=O)c3cc(NC(=O)c4ccc(C(F)(F)F)cc4)ccc3C)cn2)c1` [Example 14] the value was less than 0.1 µM. The same measure, in the same setting: the result for `C=CC(=O)Nc1cccc(Nc2ncc(NC(=O)c3cc(NC(=O)c4cccc(Cl)c4)ccc3C)cn2)c1` [Example 15] reads less than 0.1 µM; that for `C=CC(=O)Nc1cccc(Nc2ncc(NC(=O)c3cc(NC(=O)c4cccc(F)c4)ccc3C)cn2)c1` [Example 16], less than 0.1 µM. For `C=CC(=O)Nc1cccc(Nc2ncc(NC(=O)c3cc(NC(=O)c4cnoc4C)ccc3C)cn2)c1` [Example 17], the IC50 fell in the range of 0.1 to 1 µM. For `C=CC(=O)Nc1cccc(Nc2ncc(NC(=O)c3cc(NC(=O)c4cccc(N(C)C)c4)ccc3C)cn2)c1` [Example 18], the IC50 was less than 0.1 µM. On the same count and under the same terms, the result for `C=CC(=O)Nc1cccc(Nc2ncc(NC(=O)c3cc(NC(=O)C4CC4)ccc3C)cn2)c1` [Example 19] reads 0.1 to 1 µM; that for `Cc1ccc(NC(=O)c2cccc(C(F)(F)F)c2)cc1C(=O)Nc1cnc(Nc2cccc(N)c2)nc1` [Example 20], less than 0.1 µM. `Cc1ccc(NC(=O)c2cc(Cl)cc(C(F)(F)F)c2)cc1C(=O)Nc1cnc(Nc2cccc(N)c2)nc1` [Example 21]: the IC50 is less than 0.1 µM. In the case of `CCC(=O)Nc1ccc(C)c(C(=O)Nc2cnc(Nc3cccc(N)c3)nc2)c1` [Example 22], the IC50 is 1 to 10 µM. On the same count and under the same terms, for `Cc1ccc(NC(=O)c2ccc3ccccc3c2)cc1C(=O)Nc1cnc(Nc2cccc(N)c2)nc1` [Example 23] the value was less than 0.1 µM. The same measure, in the same setting: for `COc1cc(OC)cc(C(=O)Nc2ccc(C)c(C(=O)Nc3cnc(Nc4cccc(N)c4)nc3)c2)c1` [Example 24] the value was less than 0.1 µM; for `Cc1ccc(NC(=O)c2ccc3c(c2)OC(F)(F)O3)cc1C(=O)Nc1cnc(Nc2cccc(N)c2)nc1` [Example 25], less than 0.1 µM.

With `Cc1ccc(NC(=O)c2ccc(C(F)(F)F)cc2)cc1C(=O)Nc1cnc(Nc2cccc(N)c2)nc1` [Example 26], the IC50 is less than 0.1 µM. The same measure, in the same setting: the result for `Cc1ccc(NC(=O)c2cccc(Cl)c2)cc1C(=O)Nc1cnc(Nc2cccc(N)c2)nc1` [Example 27] reads less than 0.1 µM; that for `Cc1ccc(NC(=O)c2cccc(F)c2)cc1C(=O)Nc1cnc(Nc2cccc(N)c2)nc1` [Example 28], 0.1 to 1 µM; that for `Cc1ccc(NC(=O)c2cnoc2C)cc1C(=O)Nc1cnc(Nc2cccc(N)c2)nc1` [Example 29], 0.1 to 1 µM. The same measure, in the same setting: for `Cc1ccc(NC(=O)c2cccc(N(C)C)c2)cc1C(=O)Nc1cnc(Nc2cccc(N)c2)nc1` [Example 30] the value was less than 0.1 µM; for `Cc1ccc(NC(=O)C2CC2)cc1C(=O)Nc1cnc(Nc2cccc(N)c2)nc1` [Example 31], 1 to 10 µM; for `Nc1cccc(Nc2ncc(NC(=O)c3cccc(NC(=O)c4cccc(C(F)(F)F)c4)c3)cn2)c1` [Example 32], 0.1 to 1 µM. On the same count and under the same terms, the result for `Nc1cccc(Nc2ncc(NC(=O)c3cc(NC(=O)c4cccc(C(F)(F)F)c4)ccc3Cl)cn2)c1` [Example 33] reads less than 0.1 µM; that for `Nc1cccc(Nc2ncc(NC(=O)c3cc(NC(=O)c4cccc(C(F)(F)F)c4)ccc3F)cn2)c1` [Example 34], less than 0.1 µM; that for `Cc1ccc(NC(=O)Nc2cccc(C(F)(F)F)c2)cc1C(=O)Nc1cnc(Nc2cccc(N)c2)nc1` [Example 35], less than 0.1 µM. Regarding `Cc1ccc(NC(=O)/C=C/c2ccccc2)cc1C(=O)Nc1cnc(Nc2cccc(N)c2)nc1` [Example 37], the IC50 fell in the range of 0.1 to 1 µM.

The next assay deals with rat basophilic leukemia cells (RBL-2H3).
Experiment: not given
The note with it: mast cells treated with Btk inhibitor; cited from earlier work.
Take `C/C(O)=C(\C#N)C(=O)Nc1cc(Br)ccc1Br` [LFM-A13]: the “release of histamine reduced” value is on record as 20-25%.
